The target in data set [1] is T1, E. coli LpxC C63A (Escherichia coli, UniProt P0A725, C63A).
T1 construct: made in house; host or cells: E. coli BL21(DE3)
The data set is described as follows: fluorescence-based E. coli LpxC C63A enzyme inhibition assay. The class given is biochemical. As to conditions: Ki E. coli LpxC C63A, from IC50 via Cheng–Prusoff. The method, boiled down: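 Purified E. coli LpxC C63A (15 nM) was incubated with 25 µM UDP-3-O-[(R)-3-hydroxymyristoyl]-GlcNAc in MES pH 6.0 buffer (2% DMSO) for 30 min at 37 °C. Compounds ranged from 20 nM to 20 µM. Product was derivatized with o-phthaldialdehyde/2-mercaptoethanol and read by fluorescence (ex 340/em 460), with IC50 converted to Ki via Cheng–Prusoff.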

Data set [2] has as its system E. coli D22. Nature of the data set: disc diffusion assay. The class given is cell-based. Conditions: 0.15 μmol per 6 mm disc.
The test system of data set [3] is E. coli BL21(DE3). The data set is described as follows: disc diffusion assay. As to conditions: 0.15 μmol per 6 mm disc. The class given is cell-based. On the technique in general: Agar diffusion results depend on both activity and mobility in agar.
Data set [4] in a line: plasma protein binding, human. The class given is in vitro ADME. Here is the method: The microsomal metabolic stability assay as well as the plasma protein binding assay were conducted as described previously.[78]
The target in data set [5] is T2, LasB (Pseudomonas aeruginosa, UniProt Q02RJ6).
T2 construct: The elastase LasB of P. aeruginosa is a secreted metalloprotease; endogenous in cells; host or cells: P. aeruginosa PA14 culture supernatant
T2 sequence (Q02RJ6 198-498): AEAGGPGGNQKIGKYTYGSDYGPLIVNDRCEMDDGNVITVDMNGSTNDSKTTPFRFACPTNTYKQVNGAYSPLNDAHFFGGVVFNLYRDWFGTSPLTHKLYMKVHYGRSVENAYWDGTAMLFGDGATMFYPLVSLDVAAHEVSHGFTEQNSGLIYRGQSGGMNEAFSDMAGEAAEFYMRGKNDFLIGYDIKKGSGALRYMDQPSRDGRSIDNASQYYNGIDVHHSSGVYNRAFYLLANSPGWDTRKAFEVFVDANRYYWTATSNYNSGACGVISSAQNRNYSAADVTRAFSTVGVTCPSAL
The data set is described as follows: FRET-based LasB in vitro inhibition assay. It is filed as biochemical, P. aeruginosa PA14. Conditions: for inhibition at 20 µM: read-out: LasB Inhibition at 20 μM. The method, boiled down: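 FRET-based inhibition assay using LasB purified from P. aeruginosa PA14 culture supernatant; fluorescence read-out.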

In data set [6] the test system is E. coli D22. Nature of the data set: MIC, broth microdilution. The class given is cell-based. As to conditions: Escherichia coli, 20 h, 37 °C, LB. The method, boiled down: (§1)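 LB broth microdilution, inoculum 5 × 10^5 cfu mL^–1, 5% DMSO, 2-fold compound series 64–0.016 μg mL^–1 final, incubated 20 h at 37 °C. MIC was the lowest concentration preventing visible growth, from at least three runs on separate days.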
A general note: Broth dilution looks for growth in wells or tubes with falling amounts of substance.

Data set [7] concerns E. coli BL21(DE3). Nature of the data set: MIC, broth microdilution. It is filed as cell-based. Conditions: 20 h, 37 °C, LB; for MIC: Escherichia coli. In short, it runs like this: as §1
Data set [8] relates to E. coli ATCC 35218. Nature of the data set: disc diffusion assay. The class given is cell-based. Conditions: 0.15 μmol per 6 mm disc. As to the method:
(§2) In the performed disc diffusion assays, indole derivatives (S)-13h, (S)-13i, and (S)-13j caused promising halos of growth inhibition.
(§3) The disc diffusion assays against E. coli TOP10 (Thermo Fisher, Waltham, USA), E. coli ATCC 35218, K. pneumoniae ATCC 700603, and P. aeruginosa ATCC 27853 were performed as follows: the bacteria were grown overnight on a Columbia blood agar plate (Oxoid, Basingstoke, UK), and one colony was suspended in sterile saline to yield a suspension of 0.5 McFarland standard. Using a sterile swab, the suspension was spread evenly onto Mueller–Hinton agar (Oxoid, Basingstoke, UK). 0.15 μmol of each compound (dissolved in 10 μL DMSO) was applied onto circular 6 mm diameter filter paper disks, which were then placed on the agar. After incubating the agar plates for 20 h at 37 °C, the diameter of the zone of growth inhibition was measured for each compound.

Data set [9] concerns P. aeruginosa ATCC 27853. Nature of the data set: disc diffusion assay. It is filed as cell-based. Conditions: 0.15 μmol per 6 mm disc. As to the method: as §2, §3
Data set [10] has as its system E. coli TOP10. The data set is described as follows: disc diffusion assay. Conditions: 0.15 μmol per 6 mm disc. The class given is cell-based. As to the method: as §2, §3

The source of these data is paper PMC11472313, “Development of Fragment-Based Inhibitors of the Bacterial Deacetylase LpxC with Low Nanomolar Activity” (Journal of Medicinal Chemistry, 2024).

By Ki is commonly meant a dissociation constant, usually derived from enzyme kinetics or from competition with a known ligand. The term fraction unbound denotes the share of the substance not bound to proteins or other matrix. A low value points to extensive binding. Usually inhibition stands for how much of the control response was suppressed. The MIC is the smallest concentration in the dilution series that meets the test's criterion for growth inhibition. Lower therefore signals inhibition by little substance. As usually defined, the IC50 is the point on the concentration scale where inhibition reaches its midpoint. A higher IC50 goes with weaker potency in that assay.

The structures appear in SMILES notation. ≈ marks a conversion by molar mass, not a printed value. Where “and” joins values, the source holds several entries; their conditions need not be identical. Equal entries are not always repeated.

T1 sequence (P0A725 whole entry C63A): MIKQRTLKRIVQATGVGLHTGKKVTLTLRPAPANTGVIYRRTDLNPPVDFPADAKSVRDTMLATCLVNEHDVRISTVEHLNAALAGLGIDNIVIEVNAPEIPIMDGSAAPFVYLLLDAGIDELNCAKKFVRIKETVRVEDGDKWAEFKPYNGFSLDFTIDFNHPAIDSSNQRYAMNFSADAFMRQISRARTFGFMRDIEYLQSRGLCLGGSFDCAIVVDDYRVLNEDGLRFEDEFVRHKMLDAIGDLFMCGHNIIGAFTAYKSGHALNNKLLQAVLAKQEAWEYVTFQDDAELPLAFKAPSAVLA

Regarding `O=C(NC[C@H](OCc1ccc(C#Cc2ccc(CN3CCOCC3)cc2)cc1)C(=O)NO)c1c[nH]c2ccccc12` [(S)-13h], the Ki in data set [1] was 0.0107 ± 0.0012 µM. Besides, the “Inhibition zone E. coli D22” value in data set [2] is recorded as 29.3 ± 1.6 mm. In addition, the “Inhibition zone E. coli BL21(DE3)” value in data set [3] worked out at 19.7 ± 1.6 mm. The fraction unbound in [4] is 0.0175. Also, in [5], the “LasB Inhibition at 20 μM” value is on record as “little to no inhibitory activity” and the inhibition at 20 µM amounted to 25.2 ± 5.6%. The MIC in [6] is 0.031 mg/L (≈ 0.0561 µM). Further, in [7], the “MIC E. coli BL21(DE3)” value was 1.0 mg/L (≈ 1.81 µM) and the MIC is 1 to 4 mg/L (≈ 1.81 to 7.24 µM). The “Inhibition zone E. coli ATCC 35218” value in [8] worked out at 19.0 ± 1.0 mm. The “Inhibition zone P. aeruginosa ATCC 27853” value in data set [9] turned out to be 7.0 ± 1.0 mm. Also, the “Inhibition zone E. coli TOP 10” value in data set [10] stood at 18.7 ± 5.8 mm.

Take `O=C(NC[C@H](OCc1ccc(C#Cc2ccc(CN3CCOCC3)cc2)cc1)C(=O)NO)c1ccc2[nH]ccc2c1` [(S)-13j]: in data set [1], the inhibitory constant (Ki) is 0.0095 µM and 0.00945 µM. The “Inhibition zone E. coli D22” value in data set [2] is reported as 29.0 ± 1.6 mm. Besides, the “Inhibition zone E. coli BL21(DE3)” value in data set [3] is 20.0 ± 1.0 mm. In addition, the fraction unbound in [4] was 0.0205. In [5], the “LasB Inhibition at 20 μM” value is “little to no inhibitory activity” and the inhibition at 20 µM is less than 10%. This compound showed an MIC in [6] of 0.031 mg/L (≈ 0.0561 µM). Besides, in [7], the “MIC E. coli BL21(DE3)” value was determined as 2.0 mg/L (≈ 3.62 µM) and the minimal inhibitory concentration (MIC) lay within 1 to 4 mg/L (≈ 1.81 to 7.24 µM). The “Inhibition zone E. coli ATCC 35218” value in [8] is given as 21.0 ± 1.0 mm. The “Inhibition zone P. aeruginosa ATCC 27853” value in data set [9] worked out at 8.3 ± 0.6 mm. Moreover, the “Inhibition zone E. coli TOP 10” value in data set [10] was determined as 22.3 ± 3.8 mm.

For the compound `O=C(NC[C@H](OCc1ccc(C#Cc2ccc(CN3CCOCC3)cc2)cc1)C(=O)NO)c1cc[nH]n1` [(S)-13l], the Ki in [1] was determined as 0.0809 ± 0.009 µM. In data set [2], the “Inhibition zone E. coli D22” value is given as more than 30 mm. Further, in [3], the “Inhibition zone E. coli BL21(DE3)” value is 24.7 ± 0.6 mm. Besides, in [4], the fraction unbound was 0.0224. Also, in [5], the “LasB Inhibition at 20 μM” value was “little to no inhibitory activity” and the inhibition at 20 µM worked out at 11.6 ± 0.7%. This compound also gave an MIC in data set [6] of 0.063 mg/L (≈ 0.125 µM). In addition, in [7], the “MIC E. coli BL21(DE3)” value was 4.0 mg/L (≈ 7.94 µM) and the minimum inhibitory concentration (MIC) was in the range of 4 to 8 mg/L (≈ 7.94 to 15.9 µM). Moreover, in [8], the “Inhibition zone E. coli ATCC 35218” value is 25.5 ± 0.7 mm. The “Inhibition zone P. aeruginosa ATCC 27853” value in data set [9] worked out at 12.0 ± 0 mm. Moreover, the “Inhibition zone E. coli TOP 10” value in data set [10] amounted to 30.5 ± 0.7 mm.

Regarding `Cc1noc(C)c1C(=O)NC[C@H](OCc1ccc(C#Cc2ccc(CN3CCOCC3)cc2)cc1)C(=O)NO` [(S)-13n], the Ki in data set [1] was 0.127 ± 0.04 µM. Also, the “Inhibition zone E. coli D22” value in data set [2] is more than 30 mm. The “Inhibition zone E. coli BL21(DE3)” value in [3] was 20.8 ± 1.1 mm. In data set [5], it took 1.8 ± 0.15 µM to reach half-maximal inhibition (IC50) and the inhibition at 20 µM was 92.7 ± 0.7%. The lowest concentration to inhibit growth in [6] (MIC) was 0.13 mg/L (≈ 0.244 µM). In addition, 16 mg/L (≈ 30 µM) was the least that counted as inhibitory in [7] (MIC). Moreover, in [8], the “Inhibition zone E. coli ATCC 35218” value is on record as 20.0 ± 1.7 mm. Also, the “Inhibition zone P. aeruginosa ATCC 27853” value in data set [9] is less than 6 mm. Moreover, the “Inhibition zone E. coli TOP 10” value in [10] worked out at 24.0 ± 0 mm.
